Assay results published in patent US20210275480A1, “COMPOSITIONS AND METHODS FOR THE REDUCTION OR TREATMENT OF FIBROSIS” (AXCELLA HEALTH INC., priority 2018, published 2021).

Experiments:
[1] = tested on: Hsp47 gene expression, primary human hepatic stellate cells; assay: Hsp47 gene expression in TGFβ1-stimulated primary human hepatic stellate cells; format: cell-based; conditions: primary human hepatic stellate cells, three healthy donors, TGFβ1 3 ng/mL 24 h; summary in words
Method: Primary human hepatic stellate cells were obtained from Samsara Sciences based on the following criteria for selecting donors: adult age (between 18 and 50 years), normal BMI (>18.5 and <25), and absence of confounding liver disease. Cells grown in Complete HSC Medium to ˜80% confluence in T75 or T150 flasks below passage 10 were seeded into sterile, collagen I coated, 96-well optical plastic microplates (ThermoScientific, 152036) at 6000 cells per well (1250 cells per cm2) and incubated overnight at 37° C., 5% CO2 in a humidified incubator in DMEM with 2% Fetal Bovine Serum and 1% Antibiotic-Antimycotic.
After the overnight incubation, plates were removed from the incubator and the medium was gently pipetted off and washed twice with 150 μL per well DPBS. The DPBS was removed and the pretreatment medium (±single amino acid dropout, 1×HMDB DMEM+1% Antibiotic-Antimycotic, 10 mM HEPES, ±supplemental amino acid dose; see experiment for medium composition) was applied to the cells at 150 μL per well. Plates were returned to the incubator for 10.5 hours.
After 10.5 hour pretreatment, the medium was removed from the cells, and the same pretreatment medium, now supplemented with 3 ng/mL TGFβ1, was applied. Each plate contained 3 ng/mL TGFβ1 in 1× human plasma amino acid (HMDB or PAA) concentration medium, 0 ng/mL in 1×HMDB, and 3 ng/mL TGFβ1+20 μM Silybin in 1×HMDB to serve as controls. Plates were then incubated for 24 hours at 37° C., 5% CO2.
After 24 hour stimulus, supernatant was removed and frozen at −80° C. in two separate aliquots. The cells were then washed with 125 μL per well Buffer FCW (FastLane Cell Multiplex NR Kit, Qiagen, 216713). The wash buffer was immediately removed and 50 μL of Cell Processing Mix (containing genomic DNA Wipeout buffer) was applied to lyse cells, incubating for 10 minutes at room temperature. RNA lysate was then transferred to 96-well qPCR plates, sealed, and gDNA was digested on thermal cycler at 75° C. for 5 minutes. RNA lysate was frozen at −80° C.
Each 20 μL one-step RT-qPCR reaction contained 4 μL of RNA lysate. Gene expression of Hsp47, and Gapdh were multiplexed using the HEX, and FAM fluorescent channels, respectively, with commercially available primer-probe mixes (the Human Hsp47 Primer-Probe Set, HEX; and the Human Gapdh Primer-Probe Set, FAM from IDT). Gene expression was evaluated using the ΔΔCq method within each single amino acid dropout and supplementation by normalizing to its own 1×HMDB concentration.

[2] = tested on: LX-2 hepatic stellate cells; assay: TGFβ1-induced fibrogenic gene expression (Col1a1, Acta2, Timp2) in LX-2 hepatic stellate cells, qPCR; format: cell-based, human
Excerpt: Hepatic stellate cells in a healthy liver are in the space of Disse, between the hepatocytes and liver sinusoidal endothelial cells. In response to liver injury hepatic stellate cells become activated, proliferative and contractile, increase production of aSMA, secretion of type I and III collagens and specific MMP and TIMP proteins. LX-2 cells were selected as a model of activated hepatic stellate cells and used to test whether specific amino acid compositions would reduce fibrogenic gene expression induced with TGFβ1.
LX-2 hepatic stellate cells (Millipore) were seeded on day 0 at 1.67E4 cells per well in collagen I coated 96-well microplates (ThermoFisher) in Dulbecco's Modified Eagle Medium (DMEM, Corning) supplemented with 2% heat inactivated fetal bovine serum (HI-FBS, HyClone) and 0.2% Primocin (InVivoGen) and incubated overnight at 37° C., 5% CO2. […] Combinations containing N-acetylcysteine were dosed with 10 mM. Cells were pretreated for 6 hours at 37° C., 5% CO2. After pretreatment, TGFβ1 (R&D Systems) or vehicle was spiked into each well for a final concentration of 5 ng/mL and cells were incubated under this stimulus for a further 12 hours at 37° C., 5% CO2.
After 12 hour incubation, RNA extraction and quantitative PCR was conducted on lysates to determine collagen-1a1 expression normalized to β-actin housekeeping expression using the ΔΔCt method using TaqMan primer probes (Integrated DNA Technologies: Col1A1, Hs.PT.58.15517795; Actb, Hs.PT.39a.22214847; Acta2, Hs.PT.56a.24853961; Timp2, Hs.PT.58.14780594).

[3] = tested on: Col1a1 gene expression, primary human hepatic stellate cells; assay: Col1a1 gene expression in TGFβ1-stimulated primary human hepatic stellate cells; format: cell-based; conditions: primary human hepatic stellate cells, three healthy donors, TGFβ1 3 ng/mL 24 h; summary in words
Method: (§1) Primary human hepatic stellate cells were obtained from Samsara Sciences. Cells were grown in Complete HSC Medium to ˜80% confluence in T75 or T150 flasks below passage 10 were seeded into sterile, collagen I coated, 96-well optical plastic microplates (ThermoScientific, 152036) and incubated overnight at 37° C., 5% CO2 in a humidified incubator in DMEM with 2% Fetal Bovine Serum and 1% Antibiotic-Antimycotic. After the overnight incubation, plates are washed and pretreated with medium±single amino acid dropout, 1×HMDB DMEM±supplemental amino acid dose for 10.5 hours. After 10.5 hour pretreatment, the same pretreatment medium supplemented with 3 ng/mL TGFβ1, was applied and incubated for 24 hours at 37° C., 5% CO2. After 24 hour stimulus, supernatant was removed, RNA was extracted and gene expression was evaluated using the ΔΔCq method within each single amino acid dropout and supplementation by normalizing to its own 1×HMDB concentration.

[4] = tested on: procollagen Iα1 secretion, primary human hepatic stellate cells; assay: Procollagen Iα1 secretion by TGFβ1-stimulated primary human hepatic stellate cells, ELISA; format: cell-based; conditions: primary human hepatic stellate cells, three healthy donors, TGFβ1 3 ng/mL 24 h; summary in words
Method: as §1
Human Procollagen 1α1 was measured from the supernatant by ELISA (Human ProCollagen I alpha 1 DuoSet ELISA, R&D Systems) at 1/100 dilution in 1× Reagent Diluent (Reagent Ancillary Kit 2, R&D Systems).
Tables 32, 33, 33-1, 33-2, 33-3, and 33-4 show the fold change in procollagen Iα1 in primary human hepatic stellate cells from three different healthy donors normalized to their respective baseline amino acid conditions. Statistical significance calculated by one-way

[5] = LX-2 cells with TGFβ1, individual amino acid at 1X HMDB derived concentration
[6] = LX-2 cells with TGFβ1, individual amino acid at 50X HMDB derived concentration
[7] = LX-2 cells, TGFβ1 5 ng/mL 12 h, combinations at 40× HMDB, N-acetylcysteine 10 mM, normalized to β-actin

Structure (SMILES)	Hsp47 gene expression [1]	Col1a1 gene expression, mean [2, 5]	Col1a1 gene expression, mean [2, 6]	Col1a1 gene expression, mean ([2]; LX-2 cells with TGFβ1, individual amino acid at 50X HMDB derived concentration, listed as cysteine)	Col1a1 gene expression [3]	procollagen Iα1 secretion [4]	Acta2 gene expression, mean [2, 7]	Timp2 gene expression, mean [2, 7]	Col1a1 gene expression, mean ([2]; LX-2 cells, TGFβ1 5 ng/mL 12 h, combinations at 40× HMDB, N-acetylcysteine 10 mM, normalized to β-actin (ΔΔCt))	Col1a1 gene expression, mean ([2]; LX-2 cells, TGFβ1 5 ng/mL 12 h, combinations at 40× HMDB, N-acetylcysteine 10 mM, normalized to β-actin (ΔΔCt), listed as N-acetylcysteine)	Timp2 gene expression, mean ([2]; LX-2 cells, TGFβ1 5 ng/mL 12 h, combinations at 40× HMDB, N-acetylcysteine 10 mM, normalized to β-actin, listed as N-acetylcysteine)
NC(=O)CC[C@H](N)C(=O)O [GLN, glutamine]	significantly increased Hsp47 gene expression in one of three donors	2.340	2.194								
N[C@@H](CS)C(=O)O [CYS, cysteine]		2.491	1.695	significant decrease							
CC(=O)N[C@@H](CS)C(=O)O [NAC, N-acetylcysteine]					significantly reduced Col1a1 gene expression in all three donors	significantly decrease procollagen Iα1 secretion in two of the three donors	0.647	1.076	1.659	reduced	reduced
N=C(N)NCCC[C@H](N)C(=O)O [ARG, arginine]	significantly increased Hsp47 gene expression in two of three donors	1.620	1.970		did not significantly change	significantly increased procollagen Iα1 secretion in two of three donors					
CC(C)C[C@H](N)C(=O)O [LEU, leucine]	did not significantly change	1.901	2.372								
